What all share (type): cell-based
Assay [1] relates to LPS driven NFκB-reporter activity. Put plainly: THP1-Lucia NFκB reporter assay, LPS trigger. The settings on record: THP-1-Lucia NFκB cells, LPS 2.5 ng/mL, 24 h; read-out: average pEC50, LPS driven NFκB-reporter activity (converted). The source says:
(§1) This assay is used to evaluate the IRAK4 selectivity and potency of the compounds of the invention upon IRAK4 dependent (LPS and IL-1β) and independent triggering (TNFα), in a THP1-Lucia NFκB reporter assay.
(§2) THP-1-Lucia NFκB cells (Invivogen—5, rue Jean Rodier 31400 Toulouse France—cat #thp1-nfkb) were cultivated as recommended by the supplier using split cycles each cycle comprising a succession of thawing/expansion/seeding. The data reported were generated using cells having between 3 to 9 cycles. On the day of the experiment THP-1-Lucia NFκB cells were counted and seeded at a density of 1,000,000 cells/mL in culture medium (RPMI 1640 (Gibco, Cat #52400-025)+10% FBS (Sigma, Cat #F7524-500ML)+1% P/S (Gibco, Cat #15140-122)) by pipetting 54 μL/well in a 384 well plate. […]
(§3) For the readout, supernatant samples were thawed on ice and 5 μL sample was transferred from each well to a new 384-well plate. 20 μL of Quanti-Luc solution (Quanti-Luc powder (Invivogen, Cat #rep-qlc1) dissolved in 25 mL sterile water as indicated by the manufacturer) was added to each well after which luminescence was immediately measured on an Envision instrument.
(§4) To measure the inhibition of LPS/TNFα/IL-1β-induced NFκB-reporter activity, percentage inhibition (PIN) values were calculated for all concentrations tested, compared to controls. […]
(In general: Reporter assays use an easily measured gene product as a stand-in for the process of interest.)

Assay [2] deals with IL-1β driven NFκB-reporter activity. Nature of the assay: THP1-Lucia NFκB reporter assay, IL-1β trigger. The settings on record: THP-1-Lucia NFκB cells, IL-1β 3 ng/mL, 24 h; read-out: average pEC50, IL-1β driven NFκB-reporter activity (converted).
Description: as §1, §2, §3, §4

In assay [3] the test system is TNFα mediated NFκB-reporter activity. Put plainly: THP1-Lucia NFκB reporter assay, TNFα trigger. The settings on record: THP-1-Lucia NFκB cells, TNFα 10 ng/mL, 24 h.
Description: as §1, §2, §3, §4

The values that follow come from patent publication US20220296573A1, “NOVEL COMPOUNDS AND PHARMACEUTICAL COMPOSITIONS THEREOF FOR THE TREATMENT OF INFLAMMATORY DISORDERS” (Galapagos NV, priority 2019, published 2022).

On to `COc1cc2nc(C3COCCO3)cn2cc1NC(=O)c1cccn(C2CC2)c1=O` (racemic) [Compound 1, 1-cyclopropyl-N-[2-(1,4-dioxan-2-yl)-7-methoxy-imidazo[1,2-a]pyridin-6-yl]-2-oxo-pyridine-3-carboxamide], for which the results for the EC50 in assay [1] and in assay [2] were 617 nM and 39.8 nM, respectively. For the same compound, the “activity on TNFα mediated NFκB-reporter activity” value in assay [3] is on record as “no activity was observed”.
